Legend:
F344 rats = assay: Fear-potentiated startle and forepaw grip strength; assay type: in vivo, rat; details: 100 and 300 mg/kg p.o.
Description: 4) Effects of Compound of Example 26 on Fear-Potentiated Startle
The fear-potentiated startle (FPS) paradigm is a model of conditioned fear [Fendt M et al., Neuroscience Biobehav Rev. 1999, 23, 743-760]. Rats can be trained to associate an initially neutral, soon-to-be conditioned stimulus (CS; e.g., light) with an aversive, unconditioned stimulus (US; e.g., foot shock). When tested after training for their startle reflex response to brief (ms) noise bursts in the absence (no-CS) vs. the presence of the CS, rats generally show greater startle amplitudes during the presence of the CS which now serves as a predictor of shock. In humans a similar training procedure can be implemented and a FPS response can also be evoked in the presence of a shock-predicting CS.
Conditioned fear models including FPS mimic in particular the response to specific threats. […] Rather the compound may reduce those startle reactions as a consequence of reduced fear of the shock-context or reduced fear of the slightly aversive startle-eliciting noise pulses per se.
Male F344 rats were trained for two consecutive days (conditioning phase) to associate a light-stimulus with a foot shock. On the following day they were tested for their response to startle-eliciting noise stimuli which were delivered randomly under light (CS) or dark (no-CS) conditions. Two hours before the test rats were treated with one dose of compound of example 26 (0, 30, 100, 300 mg/kg p.o.). Average startle responses under light (CS) [FIG. 3 A)] and dark conditions (no-CS) [FIG. 3 B)] during the test day were measured and recorded as an electric signal (in mV). Following startle testing, rats underwent an additional forepaw grip strength (in g) [FIG. 3 C)] test to control for potential myorelaxant effects of the compound (dosed at 0, 30, 100, 300 mg/kg p.o.).

Wistar Rats = assay: Social stress-induced hyperthermia and tachycardia; assay type: in vivo, rat; details: 100 mg/kg orally two hours before one hour social interaction stress
Description: 3) Effects on Social Stress-Induced Hyperthermia and Tachycardia
Exposure to both physiological and psychological stress in mammals leads to an elevation of core body temperature and heart rate referred to as stress-induced hyperthermia (SIH) and stress-induced tachycardia (SIT).
The SIH/SIT response can be observed in humans equally well as in rodents providing excellent animal to human translational possibilities.
12 male Wistar rats were implanted intraperitoneally with transmitters that allowed the simultaneous recording of body temperature (in degrees Celsius) [FIG. 2 A)] and heart rate (in beats per minute) [FIG. 2 B)] via external receivers. Rats were treated orally with 100 mg/kg of compound of example 26 two hours before exposure to an one hour-lasting social interaction stress. Columns 1 and 2 show the effect on body temperature [FIG. 2 A)], respectively heart rate [FIG. 2 B)], after vehicle (1) or drug (2) treatment without exposure to stress; columns 3 and 4 show the effect with exposure to stress after vehicle (3) or drug (4) treatment.

forepaw grip strength (myorelaxant effects) (F344 rats): without affecting
SMILES: COc1ccc(S(=O)(=O)N2CCC[C@H]2C(=O)Nc2cc(C)cc(C)c2)cc1 [Example 26, (S)-1-(4-Methoxy-benzenesulfonyl)-pyrrolidine-2-carboxylic acid (3,5-dimethyl-phenyl)-amide]
fear-potentiated startle response under CS conditions (F344 rats; two hours before test): significantly reduced
startle response under no-CS conditions (F344 rats; two hours before test): significantly reduced
social stress-induced hyperthermia (Wistar Rats): significantly attenuated
social stress-induced tachycardia (Wistar Rats): significantly attenuated
